Earlier results as cited in US12606590B2, “MRNA 5′-end cap analogs, RNA molecule incorporating the same, uses thereof and method of synthesizing RNA molecule or peptide” (Uniwersytet Warszawski, priority 2020, dated 2026).

Details: in vitro and in vivo; single atom substitution in β position of cap oligophosphate bridge

With `CO[C@@H]1[C@H](O)[C@@H](COP(=O)(O)OP(=O)([S-])OP(=O)(O)OC[C@H]2O[C@@H](n3cnc4c(=O)[nH]c(N)nc43)[C@H](O)[C@@H]2O)O[C@H]1n1c[n+](C)c2c(O)nc(N)nc21` (stereo partly drawn) [β-S-ARCA] as the compound, how does the mRNA translation efficiency read?
Its mRNA translation efficiency is “significant increase in mRNA translation efficiency”.
